Reference: patent US20200338115A1, “PHARMACEUTICAL COMPOSITION FOR PREVENTION OF RECURRENT URINARY TRACT INFECTION” (priority 2019, published 2020)

Assays:
[1] = test system: peripheral red blood cell (RBC) counts; experiment: Rat UTI model (Example 1): peripheral red blood cell counts; details: PPS 30 mg/kg/day oral Day −14 to Day 0; control, UTI model and PPS prevention groups
Description: The current example treats Sprague-Dawley (SD) rats with uropathogenic Escherichia coli (UPEC) to establish the rat UTI model. […] The UPEC used in the current example is ATCC®700336™, designation: J96 (serotype O4:K6), purchased from Food Industry Research and Development Institute of Taiwan. The UPEC is stored in trypticase soy agar/broth, and is centrifuged at 5,000 rpm for 10 minutes. Pellets of the UPEC after the centrifugation are dissolved in 10 mL sterile phosphate buffered saline (PBS). The cell density of the UPEC is adjusted to an optical density (OD600) of 1 to 1.1. This optical density is corresponded to the cell density of 8×10^7 to 2×10^8 colony forming units (CFU)/mL. The UPEC is then made into a 250 μL 0.9% N/S solution of 8×10^7 CFU for treating the rats.
The UTI model group and the PPS prevention group are infected with the UPEC by trans-urethral catherization on Day 1. The PPS prevention group is treated with the PPS by oral gavage with a 18G stainless-steel gavage needle attached to a 3 mL tuberculin syringe from Day −14 to Day 0. The PPS dosage for the rats in the current example is 30 mg/kg/day. […] The UPEC in the LB broths and on the LB agar plates are quantified after the incubation. […]

[2] = test system: peripheral WBC count; experiment: Rat UTI model, low-dose PPS (Example 3): peripheral WBC count percentages; type: in vivo, SD rats; details: 8.5 mg/kg/day oral Day −14 to Day 0
Description: (§1) The purpose of the current example is to investigate effects of a reduced dosage of PPS for preventing UTI in the rat URI model. The SD rats are randomized and grouped into a control group (N=7), an UTI model group (N=10), a normal PPS dosage group (N=10), and a reduced PPS dosage group (N=5). The UTI model group, the normal PPS dosage group, and the reduced PPS dosage group are infected with UPEC on Day 1. The method of infection and the amount of UPEC being injected to the rats of the current study are the same as the UPEC infection in Example 1. […] The control group is not infected by the UPEC or treated by PPS. Urine samples and the blood samples of the rats are collected on Day 0, 3, and 7, using the same techniques and tools as described in Example 1. The collected urine samples are diluted 10, 10^2, 10^3, 10^4, and 10^5 folds, and the diluted urine samples are cultured on BSA plates and incubated for 12 hours at 37° C. UPEC colonies on the BSA plates are counted after the incubation. In FIGS. 10 and 11, the UTI model group is denoted as “UTI”, the normal PPS dosage group is denoted as “UROpre”, and the reduced PPS dosage group is denoted as “low UROpre”.
FIG. 11 is a bar chart comparing the peripheral WBC count percentages of the control group, the reduced PPS dosage group, and the UTI model group, in accordance with an embodiment of the present disclosure. The WBC counts reflects a current urinary tract infection episode, the WBC count percentage can be a relative indicator comparing the WBC counts before the infection and after the infection. The WBC count percentages in FIG. 11 are used to examine the efficacy of the reduced PPS dosage in the rat UTI model. The WBC counts on Day 0 in the control group, the reduced PPS dosage group, and the UTI group are designated as 100% in FIG. 11. The WBC count percentages of the 3 groups are elevated on Day 1, reflecting more WBCs entering the peripheral blood after the infection. On Day 3, the WBC count percentage of the low UROpre group is about 120%, whereas the WBC count percentage of the UTI group is about 130%.

[3] = test system: recurrent urinary tract infection (rUTI); experiment: Phase II randomized controlled trial of oral PPS for prevention of rUTI (Example 2): efficacy; type: in vivo, human subjects
Description: The current example is a multicenter, prospective, open-label, phase II, randomized controlled trial. The purpose of the current example is to investigate the effects of orally administered PPS in the prevention of rUTI in the human subjects. The study period of the current trial is 16 weeks, which is expected to cover most of the rUTI episodes.
The human subjects in the current example are screened and recruited in the OPD. Eligible patients are 20-70 year-old female patients with confirmed UTI ≥2 times in the past 6 months, or ≥3 times in the past 12 months, and had prior antibiotics treatment for previous UTI episodes(s). The eligible patients are without lower urinary tract symptoms and completely recovered from the last UTI episode. Patients with the following criteria are also excluded: allergic reaction to PPS, undergoing surgery within 24 week in a follow-up period of the current trial, participating in any intervention study 90 days before screening, bladder instillation with hyaluronic acid within 3 months before screening, pregnancy, breast feeding, upper urinary tract infection, fever >38° C., serum WBC count greater than 12,000/mm^3, urinary catheterization within 1 week, urinary tract anomalies, interstitial cystitis, urolithiasis, renal insufficiency, cancer history, immunocompromised, organ transplant history, pelvic organ prolapse stage II or higher, post-voiding residual urine more than 100 ml, stress or urge urinary incontinence, and positive urine culture during screening. 45 patients are screened for eligibility, with only 27 patients remained and 18 patients are excluded. The screening in the current trial is defined as Visit 1.
For analyzing results of the current study, all statistical analyses are performed using MedCalc Statistical Software version 19.0.3. The Mann-Whitney U test and Student's t-test are used to compare medians and means, respectively. Contingency tables are constructed for comparisons using a chi-square test and Fisher's exact test. The Kaplan—Meier method is used for the construction of survival curves. A log-rank test and Cox proportional hazard model are used to compare recurrence-free survival duration between groups. All tests are 2-tailed. A P-value <0.05 is considered significant.

[4] = test system: uropathogenic Escherichia coli (UPEC); experiment: Rat UTI model, low-dose PPS (Example 3): urine bacterial counts; type: in vivo, SD rats; details: for urine bacterial counts compared with UTI model group: Day 3
Description: as §1

[5] = orally administered PPS, previous studies; cited from earlier work
[6] = test system: uropathogenic Escherichia coli (UPEC); experiment: Rat UTI model (Example 1): urine bacterial counts after oral PPS; type: in vivo, Sprague-Dawley (SD) rats
Description: (§2) UPEC is known as the primary cause of UTI.
(§3) The rats are sacrificed at Day 14.

[7] = in vivo
Description: The 27 patients remained are randomized to a PPS group (N=13) and a control group (N=14). The PPS are orally administered to the PPS group according to a continuous daily dosing regimen of 100 mg, 3 times a day for the first 8 weeks (total administered amount is 300 mg PPS per day). Then, the dosing regimen is changed to 100 mg 2 times a day for the remaining 8 weeks (total administered amount is 200 mg PPS per day). The PPS can be taken either 1 hour before or 2 hours after meal. Any forms of UTI prophylaxis or treatment, including antibiotics, hyaluronic acid instillation, cranberry, nonsteroidal anti-inflammatory drugs, or steroids, are forbidden in the study period of the current trial. […] The patients in both groups are visited every four week from the 0th week (Visit 2), the 4th week (Visit 3), the 8th week (Visit 4), the 12th week (Visit 5), to the 16th week (Visit 6), and Visit 6 is marked as the end of the current trial.
The patients are required to report relevant urinary tract symptoms to an investigator, during each of the visits. […] Information regarding adverse events, including grade of severity (according to National Cancer Institute Common Terminology Criteria for Adverse Events, version 5.0), timing, and their relationship with the medication assessed by the investigator, are also recorded at each of the visits. […]

[8] = test system: IL-1β; experiment: Rat UTI model (Example 1): Luminex assay of peripheral blood IL-1β; type: in vivo, Sprague-Dawley (SD) rats; details: PPS 30 mg/kg/day oral Day −14 to Day 0; Day 3
Description: as §2, §3
(§4) Luminex assays are used to evaluate peripheral blood biomarkers relevant to infection or inflammation. FIG. 6 is a bar chart comparing the Luminex assay results for IL-1β in the control group, the UTI model group, and the PPS prevention group, in accordance with an embodiment of the present disclosure. IL-1β level is relevant to a current inflammation or infection, and a higher IL-1β level indicates a more severe inflammation. […] FIG. 7 is a bar chart comparing the Luminex assay results for TNF-α in the control group, the UTI model group, and the PPS prevention group, in accordance with an embodiment of the present disclosure. TNF-α is a cytokine that promotes inflammatory responses, and a higher TNF-α level indicates a more severe inflammation in the rats.

[9] = pH 6; cited from earlier work
[10] = test system: TNF-α; experiment: Rat UTI model (Example 1): Luminex assay of peripheral blood TNF-α; type: in vivo, Sprague-Dawley (SD) rats; details: PPS 30 mg/kg/day oral Day −14 to Day 0; Day 3 and Day 14
Description: as §2, §3, §4

[11] = test system: bladder epithelium; experiment: Rat UTI model (Example 1): H/E staining of bladder tissue; type: in vivo, Sprague-Dawley (SD) rats; details: PPS 30 mg/kg/day oral Day −14 to Day 0; rats sacrificed at Day 14
Description: as §2, §3

[12] = test system: peripheral white blood cell (WBC) counts; experiment: Rat UTI model (Example 1): peripheral white blood cell counts; type: in vivo, Sprague-Dawley (SD) rats; details: PPS 30 mg/kg/day oral Day −14 to Day 0
Description: as §2, §3
FIG. 4 is a bar chart comparing peripheral white blood cell (WBC) counts in the control group, the UTI model group, and the PPS prevention group, in accordance with an embodiment of the present disclosure. The WBC counts in different groups reflect conditions of the UPEC infection in the rats: a higher WBC count may represent a more severe UPEC infection. […] The WBC counts in the UTI model group have remained as the highest among 3 groups on Day 1, Day 3, and Day 7.

With pentosan polysulfate sodium [PPS] the “peripheral RBC counts, difference among groups” value [1] was “no significant differences”, the “peripheral WBC count percentage (Day 0 = 100%)” value ([2]; Day 1) was “elevated” and the “peripheral WBC count percentage (Day 0 = 100%)” value ([2]; Day 3, UTI group about 130%) was “about 120%”. The “peripheral WBC count percentage (Day 0 = 100%)” value ([2]; Day 7) was “about 60%”, the “peripheral WBC count percentage compared with UTI group” value ([2]; Day 7) was “significantly lower than that of the UTI group” and the “overall UTI recurrence free survival compared with control group (Kaplan-Meier)” value ([3]; 26 patients, log-rank test p=0.0004) was “significantly higher in the PPS group than in the control group”. The “UTI recurrence, %” value ([3]; PPS group N = 12, 300 mg/day for 8 weeks then 200 mg/day for 8 weeks, oral, 16 weeks, control 64.3%, p <0.001) was 0%, the “lower urinary tract symptoms or positive urine analysis” value ([3]; PPS group, 16-week study period) was “none of the patients in the PPS group had lower urinary tract symptoms nor positive urine analysis” and the “efficacy in preventing rUTI in the human subjects” value ([3]; about 3.34 mg/kg/day, total 200 mg PPS per day, remaining 8 weeks) was “also therapeutically effective”. The “efficacy in preventing rUTI in the human subjects” value ([3]; less than 5 mg/kg/day, total 300 mg PPS per day (reference weight 60 kg), first 8 weeks) was “proven to be therapeutically effective”, the “protective effect in preventing rUTI in the human subjects” value ([3]; oral administration of PPS, conclusion of the trial) was “excellent protective effect” and the “therapeutic effect in the rat UTI model” value ([4]; 8.5 mg/kg/day orally administered PPS, 14 days) was “therapeutically effective”. For the same substance, the “urine bacterial counts compared with UTI model group” value ([4]; normal PPS dosage 30 mg/kg/day oral Day −14 to Day 0 (UROpre)) was “lower than the UTI model group”, the “urine bacterial counts compared with UTI model group” value ([4]; reduced PPS dosage 8.5 mg/kg/day oral Day −14 to Day 0 (low UROpre)) was “lower than the UTI model group” and the “adverse effect: abdominal pain” value [5] was 2%. The “adverse effect: diarrhea” value [5] was 1-14.9%, the “adverse effect: dizziness” value [5] was 1% and the “adverse effect: dyspepsia” value [5] was 2%. The “adverse effect: headache” value [5] was 1-2.9%, the “adverse effect: liver function abnormalities” value [5] was 1-2% and the “adverse effect: nausea” value [5] was 1.4%-7.9%. For the same substance, the “adverse effect: rash” value [5] was 3%, the “adverse effect: rectal hemorrhage” value [5] was 4% and the “urine bacterial counts compared with UTI model group” value ([6]; PPS 30 mg/kg/day oral Day −14 to Day 0, UPEC on Day 1, Day 1, Day 3 and Day 7) was “lower than the urine bacterial counts in the UTI model group”. For the same substance, the urine bacterial counts ([6]; PPS 30 mg/kg/day oral gavage Day −14 to Day 0, Day 0) was “below 10^3 CFU/mL”, the “overall effect on UTI in the rats” value ([6]; PPS oral 30 mg/kg/day for 14 days) was “effectively reduces UTI” and the “adverse effects observed in the trial” value [7] was “none of the above adverse effects are observed”. The “complete blood counts, liver function tests and coagulant-related tests” value [7] was “no abnormalities”, the “peripheral IL-1β level compared with UTI model group” value [8] was “significantly lower than the UTI model group” and the solubility in water [9] was “up to 50%”. For the same substance, the “peripheral TNF-α levels compared with UTI model group” value [10] was “lower TNF-α levels than the UTI model group”, the “H/E staining result of bladder tissue” value [11] was “fresh layer of accumulated epithelial cells” and the “peripheral WBC counts compared with UTI model group” value ([12]; Day 1, Day 3 and Day 7) was “fewer than the WBC counts in the UTI model group”. The “peripheral WBC counts, time course” value ([12]; after Day 3) was “in steady decline after Day 3”.
